Experimental data taken from a melting point compilation (Tetko et al.).

Work on CCOP(=S)(OCC)Oc1cnc2ccccc2n1 yielded a melting point of 31.5 °C. Molecule O=C1CN(N=Cc2ccc([N+](=O)[O-])o2)C(=O)N1CN1CCOCC1 has a melting point of 206 °C. O=C(O)c1ccc(N=C=S)cc1 showed a melting point of 220 °C. Cc1n[nH]c(C)c1Cl showed a melting point of 118 °C. In the case of N#C/C(=N\Nc1ccc(Br)cc1)c1nc2ccccc2s1, the melting point is reported as 280 °C. With Cc1cccc(C(N)=NO)c1 the melting point was 143 to 146 °C. Molecule Clc1ccc(C(c2ccccc2)N2CCNCC2)cc1 (stereo unspecified) has a melting point of 65 to 75 °C. In the case of Cc1c(NC(C)C)c(=O)n(-c2ccccc2)n1C, the melting point is reported as 80 °C. Molecule COc1cc(C(=O)c2cccc(Br)c2)c([N+](=O)[O-])cc1OC has a melting point of 119 °C. With C[C@H](O)C(N)=O the melting point was 51 to 55 °C. Cc1ccsc1C showed a melting point of -49 °C. For NCCCCCC(=O)O, the melting point was 211 °C. In the case of CCC1C2=C(OC(=O)C1(C)C)c1ccc(OC)cc1CC2 (stereo unspecified), the melting point is reported as 142 to 143 °C. In the case of O=[N+]([O-])c1ccccc1-c1ccccc1[N+](=O)[O-], the melting point is reported as 126 °C. Work on Clc1ccc(I)cn1 yielded a melting point of 97 °C. Molecule O=C(O)c1ccccc1P(c1ccccc1)c1ccccc1 has a melting point of 178 °C. With CCOC(=O)C(Cl)=Cc1cc(N2C(=O)C3=C(CCCC3)C2=O)ccc1Cl the melting point was 112 °C. O=C(O)C(O)C(=O)O showed a melting point of 157 °C. For CCCCCCCCCCCCOc1ccc(N=Cc2ccc(N(C)C)cc2)cc1, the melting point was 94.5 °C. O=C1C(=C2Nc3ccccc3C2=O)Nc2ccccc21 gave a melting point of 300 °C. Molecule Nc1ccc(N=Nc2ccc(N=Nc3ccc(N)cc3)cc2)cc1 has a melting point of 247 °C. With CCCCCCCCCCOC(C)=O the melting point was -15 °C. CC(C)CCC[C@@H](C)[C@H]1CC[C@H]2[C@@H]3CC=C4C[C@@H](OCOc5ccc(Cl)cc5)CC[C@]4(C)[C@H]3CC[C@]12C gave a melting point of 144 to 145 °C. CCOC(=O)c1csc(C2CCN(C(=O)OC(C)(C)C)CC2)n1 showed a melting point of 71 to 73 °C. In the case of Cc1ccccc1S, the melting point is reported as 15 °C. Work on O=C1/C(=C/c2ccc([N+](=O)[O-])cc2)SC(=S)N1CNc1ccc([N+](=O)[O-])cc1 yielded a melting point of 189 °C. Cn1c(-c2ccccc2)cc2ccccc21 gave a melting point of 99 °C. In the case of CCCCc1cc(C)ccc1O, the melting point is reported as 19 °C. CCOC(=O)c1nnn2c3ccccc3c(=O)n(C)c12 showed a melting point of 149 to 150 °C. Molecule Cc1cc(C)c(C)c(CO)c1C has a melting point of 112 °C. Work on Nc1ccc2c(c1)C(=O)c1ccccc1-2 yielded a melting point of 152 to 157 °C. For O=C(O)C1CCC1C(=O)O (stereo unspecified), the melting point was 131 °C. Work on CN(C)c1ccc(CCC2CCc3ccccc3N2C(=O)c2ccccc2)cc1 (stereo unspecified) yielded a melting point of 121 °C. Molecule Cn1ccc2cc([N+](=O)[O-])ccc21 has a melting point of 167 to 169 °C. With O=C(O)CCCC1CCCCC1 the melting point was 31 °C. Molecule COC(=O)c1ccccc1S(=O)(=O)Cl has a melting point of 62 to 63 °C. For Cc1o[nH]c(=O)c1CC(N)C(=O)O (racemic), the melting point was 240 to 252 °C. Molecule CCS(=O)(=O)C(C)(C)S(=O)(=O)CC has a melting point of 126 °C. For O=C1CC2C(CC(OC(=O)c3ccccc3)C2CO)O1 (single isomer, unassigned; (-)), the melting point was 116 to 120 °C. With C=C1C(C)CCC2(C)C3=C(C(=O)C4(CC4C)C(OC(C)=O)C3=O)C(OC(C)=O)C(OC(C)=O)C12 (stereo unspecified) the melting point was 173 °C. With O=C(O)C=CC(=O)Nc1ccccc1 the melting point was 177 °C. With CC(=O)Nc1ccc(C=Cc2nc3cc([N+](=O)[O-])ccc3n2-c2ccc(C)cc2)cc1 the melting point was 249 to 250 °C. For Cc1ccncc1C, the melting point was -11 °C. COc1cc(C(C)(C)C)c(O)c(C(C)(C)C)c1 gave a melting point of 105 °C. Molecule c1coc(CNc2ncnc3[nH]cnc23)c1 has a melting point of 269 to 271 °C. Molecule O=C1c2ccccc2CC2CCc3ccccc3N12 (stereo unspecified) has a melting point of 130 °C. For O=C(CC(=O)C(F)(F)F)c1ccc2c(c1)OCO2, the melting point was 108 to 109 °C. Work on O=C(O)c1cnc2ccccn12 yielded a melting point of 196 to 197 °C. N=C1NC(=O)C(=NNc2ccccc2)S1 showed a melting point of 210 °C. Work on NC(=O)c1ccc(C(F)(F)F)nc1O yielded a melting point of 220 to 223 °C. O=C(O)Cc1ccc(O)c(F)c1 showed a melting point of 132 to 134 °C. For Ic1ccc(OCc2ccccc2)cc1, the melting point was 62 °C. Molecule Cc1ccc(N2CSc3nnc(-c4cccc([N+](=O)[O-])c4)n3C2)cc1 has a melting point greater than 300 °C. In the case of CC(=O)c1sccc1Br, the melting point is reported as 43 °C. Molecule N=c1oc2ccccc2cc1-c1nc2ccccc2c(=O)[nH]1 has a melting point of 275 °C. For COC(=O)C(C)N(C(=O)c1ccccc1)c1ccc(F)c(Cl)c1 (stereo unspecified), the melting point was 85 °C. N#CCCCCCC#N showed a melting point of -31.4 °C. With OCc1scc2c1OCCO2 the melting point was 68 to 69 °C. With COc1ccc([P+]2([S-])Nn3c(nnc3C(F)(F)F)S2)cc1 (stereo unspecified) the melting point was 211 °C. CC(=O)OC1CCC(C(C)(C)C)CC1 (stereo unspecified) showed a melting point of -50 °C. c1ccc(Cn2cccc2)cc1 showed a melting point of 15 °C. In the case of CCOc1cc(C(C)(C)C)ccc1C1COC(c2c(F)cccc2F)=N1 (stereo unspecified), the melting point is reported as 102 °C. For N#Cc1ccncc1Cl, the melting point was 72.5 °C. O=C1NC(=S)NC(=O)C1=NNc1ccc(Br)cc1 gave a melting point of 268 °C. For O=Cc1ccc(-c2ccccn2)cc1, the melting point was 51 to 53 °C. Work on O=C(O)C(Cl)Cl yielded a melting point of 13.5 °C. CCc1ccc(C(N)=O)cc1 showed a melting point of 163 °C. Molecule Cc1oc(-c2ccccc2)nc1C(=O)Cl has a melting point of 135 to 136 °C. CCOc1nc2ccccc2c(=O)[nH]1 showed a melting point of 178 to 179 °C. With CCCCCC(=O)OCC(COC(=O)CCCCC)OC(=O)CCCCC the melting point was -60 °C. For NC(=S)c1cc(Cl)nc(Cl)c1, the melting point was 145 to 150 °C. CC(=O)c1csc(-c2ccc(OC(F)(F)F)cc2)n1 showed a melting point of 45.5 to 48 °C. In the case of CCCCN(CCCC)C(C(N)=O)c1ccc(OC)cc1 (stereo unspecified), the melting point is reported as 134 °C. Work on CCOC(=O)/C(=C\c1ccccc1)c1ccccc1[N+](=O)[O-] yielded a melting point of 95 °C. For COC(=O)c1c(Cl)nn(C)c1S(=O)(=O)NC(=O)Nc1nc(OC)cc(OC)n1, the melting point was 176 °C. In the case of COc1cccc(C2C(C(=O)OC(C)C)=C(C)NC(C)=C2C(=O)OC(C)C)c1OC, the melting point is reported as 141 °C. Work on Fc1cccc(F)c1CCl yielded a melting point of 34 °C. In the case of Oc1ccc2ccc3cccc4ccc1c2c34, the melting point is reported as 180 °C. Molecule O=C(OOC(=O)c1ccccc1)c1ccccc1 has a melting point of 105 °C. With COc1ccc(C(N)=O)c(Cl)c1OC the melting point was 165 to 168 °C. With C1CC2OC2CC1C1CO1 (stereo unspecified) the melting point was -109 °C. In the case of CC(C)(C)c1cc(C(C)(C)c2ccc(O)c(C(C)(C)C)c2)ccc1O, the melting point is reported as 114 °C. CCOC(=O)c1c(-c2ccccc2)csc1NC(=O)CN(CC)CC gave a melting point of 93 to 94 °C. With CCCC(=O)c1ccc(N)cc1 the melting point was 94 to 95 °C. Work on O=C(O)c1cnc2ccc(OC(F)(F)F)cc2c1O yielded a melting point of 245 °C. Molecule Fc1cccc(P(c2cccc(F)c2)c2cccc(F)c2)c1 has a melting point of 61.5 °C. Molecule O=C(O)c1c(Cl)ccc2cc(Cl)cnc12 has a melting point of 274 °C. For CCCCNC(=O)CC#N, the melting point was 54 to 55 °C. Work on O=C(CCCCl)c1ccc(O)cc1 yielded a melting point of 113 °C. In the case of CSc1nc2cc([N+](=O)[O-])ccc2[nH]1, the melting point is reported as 211 to 212 °C. For Cc1cc(C)c2c(c1C)C(=O)C2, the melting point was 73 °C.
